Read-outs that look alike come from different tables or passages of the source.
Tests used:
zebrafish embryos = assay: Tg(fli1:EGFP) zebrafish embryo in vivo angiogenesis assay; conditions: for Anti-angiogenic effect (in words): zebrafish embryos, concentration range; for Concentration at which intersomitic vessel (ISV) formation was suppressed: as low as, toxicity evident above
Method: Tg(fli1:EGFP) zebrafish, which express enhanced green fluorescent protein (GFP) in their endothelial cells, were used as an in vivo model for angiogenesis. At 20 hours post-fertilization (hpf), zebrafish embryos (10 per well/condition) were bathed in fish media, containing a concentration range of each of the compounds or control. Compounds had been dissolved as stock solutions in DMSO, stored at room temperature, and serially diluted in fish media prior to use. The anti-angiogenic tyrosinase kinase inhibitor SU5416 (Pfizer), and a vehicle-alone control containing the maximum concentration of DMSO were used as controls in all experiments.
In the first sets of experiments, a broad range of concentrations were used to identify the maximum tolerable dose, based on toxicity to the embryos, visualized directly by light microscopy. Subsequent experiments were performed a minimum of two times. Live analyses of the embryos were performed under light and fluorescence microscopy at 28 hpf and 48 hpf to monitor viability, overall morphology, and pattern of swimming. Angiogenesis was evaluated visually by fluorescence microscopy.
The developmental growth and patterning of the dorsal aorta, posterior cardinal vein, intersomitic vessels (ISV), and vascular plexus (VP) were monitored, as was the heart rate, and blood flow.
Eight compounds (4, 7, 8, 9, 10, 11, 12 and 15) were compared to artesunate for their anti-angiogenic potential using an in vivo zebrafish embryo model system (Table III blow). DMSO at concentrations of 0.5, 1, and 2% was used as vehicle control. No effects were observed on overall morphology, heart rate, blood flow, or angiogenesis in control embryos. The anti-angiogenic agent SU5416 was used as a positive control.

P-glycoprotein (P-gp) [1] = target: T1, P-glycoprotein (P-gp) (Homo sapiens, UniProt P08183)
Method: (§6) The intracellular accumulation of calcein inside the cells is measured by using FACS analysis. The points indicate mean values of fluorescent effect, vertical lines show standard error calculated on the base of two independent experiment replicates. The effect corresponds to a control of cells which were treated only with calcein.
(§7) Test compounds were dissolved in DMSO as stock solutions and further dilutions were made with DMEM/HAM's F12 1:1 (Biochrom). […] A range of concentrations of test compound in a volume of 300-600 μL cell suspension were added, followed by a 15 min incubation at 37° C. Calcein-AM (300 μL) (MoBiTec, Göttingen, Germany) in DMEM/HAM's F12 1:1 was added to a final concentration of 1 μM and incubated for 30 min at 37° C.
(§8) For the calcein-AM assay using flow cytometry, the cell density of suspensions in DMEM/Ham's F12 1:1 was 2.5×10^7 cells/ml.
(§9) Gating on forward and side scatter in concert with propidium iodide staining allowed distinguishing live endothelial cells.
(§10) Twenty thousand cells were sorted in each run, and data were processed and analyzed with CellQuest (Franklin Lakes, N.J., USA). All fluorescence signals were corrected for background fluorescence. Calcein-AM auto-hydrolysis was measured in control samples (n=6) without cells.

HUVEC cells = assay: VEGF-induced HUVEC proliferation/viability assay (WST1); assay type: cell-based, human; conditions: for Inhibition of proliferation and survival of HUVECs: 30 ng/ml VEGF165, 0.5-100 μM, 96 hrs
Method: Single donor HUVEC cells were purchased from Lonza (Breda, Netherlands). Cells were seeded at 5,000 cells per well in 96-well microtiterplates in EGM-2EV medium (Invitrogen). Upon adherence the cells were gently washed twice with PBS and starved overnight in EGM-2EV medium with reduced FBS content (0.1%; starvation medium).
After 96 hrs, cell growth was quantified using the WST1 Rapid cell proliferation kit (Calbiochem), and was expressed in percentage of the control value (VEGF alone). Experiments were carried out in triplets.
To further evaluate the anti-angiogenic potential of the present novel compounds, proliferation and survival of human umbilical vein endothelial cells (HUVECs) treated with VEGF and two compounds that were very active in the zebrafish model were assayed.

[2] = system: CEM/ADR5000 leukemia cells (P-glycoprotein-overexpressing); assay: XTT cytotoxicity assay, multidrug-resistant cells; assay type: cell-based, human; conditions: for Degree of resistance: CEM/ADR5000 versus CCRF-CEM
Method: (§1) Multidrug-resistant, P-glycoprotein-overexpressing CEM/ADR5000 cells and their parental, drug-sensitive counterpart, CCRF-CEM cells were used. The cell lines were provided by Dr. Daniel Steinbach (University of Ulm, Ulm, Germany).
(§2) Doxorubicin resistance of CEM/ADR5000 was maintained as described. […] The cell lines were maintained in RPMI medium (Life Technologies) supplemented with 10% FCS in a humidified 7% CO2 atmosphere at 37° C. Cells were passaged twice weekly. All experiments were done with cells in the logarithmic growth
(§3) Cytotoxicity was assessed using the 2,3-bis[2-methoxy-4-nitro-5-sulfophenyl]-2H-tetrazolium-5-carboxanilide inner salt (XTT) assay kit (Roche, Indianapolis, Ind.), which measures the metabolic activity of viable cells. Toxicity of compounds was determined with the Cell Proliferation Kit II (Roche Diagnostics, Mannheim, Germany), according to the manufacturer's instructions.
Fresh stock solutions of each compound were prepared in DMSO at a concentration of 100 mM, and a dilution series was prepared in DMEM. […] Marginal wells were filled with 100 μL of media to minimize evaporation. A row of wells with cells was left untreated and another row of wells with cells was treated with 1 μL DMSO, the latter serving as a solvent control. All studies were performed in duplicate, in a range of concentrations, and in two independent experiments with different batches of cells.
(§4) The ligand binding module of Sigma plot software (version 10.0) was used for analysis.
(§5) All compounds were tested both towards drug-sensitive CCRF-CEM leukemia cells and their multidrug-resistant subline, CEM/ADR5000.

P-glycoprotein (P-gp) [3] = target: T1, P-glycoprotein (P-gp); assay: Calcein-AM assay with flow cytometry in CEM/ADR5000 cells; conditions: for EC max (intracellular calcein fluorescence compared to untreated controls) / EC50: CEM/ADR5000 cells, flow cytometry; for EC50: read-out: EC50 calcein-AM assay
Method: as §6, §7, §8, §9, §10

CCRF-CEM leukemia cells = assay: XTT cytotoxicity assay, drug-sensitive cells; assay type: cell-based, human
Method: as §1, §2, §3
Fresh stock solutions of each compound were prepared in DMSO at a concentration of 100 mM, and a dilution series was prepared in DMEM. Cells were suspended at a final concentration of 1×10^5 cells/ml, and […] were aliquoted per well into a 96-well culture plate (Costar, Corning, USA). Marginal wells were filled with 100 μL of media to minimize evaporation. A row of wells with cells was left untreated and another row of wells with cells was treated with 1 μL DMSO, the latter serving as a solvent control. All studies were performed in duplicate, in a range of concentrations, and in two independent experiments with different batches of cells.
as §4, §5

[4] = system: P-gp expressed in porcine capillaries; assay: Transport of NBD-CSA into porcine brain capillary lumens (confocal microscopy); assay type: cell-based
Description: Luminal P-gp was inhibited by a well-known selective P-gylcoprotein inhibitor, PSC-833.

[5] = Homo sapiens, ADR5000, read-out: IC50 CEM/ADR5000
[6] = multidrug-resistant CEM/ADR5000 cells, XTT, read-out: IC50 CEM/ADR5000

T1 sequence (P08183 whole entry): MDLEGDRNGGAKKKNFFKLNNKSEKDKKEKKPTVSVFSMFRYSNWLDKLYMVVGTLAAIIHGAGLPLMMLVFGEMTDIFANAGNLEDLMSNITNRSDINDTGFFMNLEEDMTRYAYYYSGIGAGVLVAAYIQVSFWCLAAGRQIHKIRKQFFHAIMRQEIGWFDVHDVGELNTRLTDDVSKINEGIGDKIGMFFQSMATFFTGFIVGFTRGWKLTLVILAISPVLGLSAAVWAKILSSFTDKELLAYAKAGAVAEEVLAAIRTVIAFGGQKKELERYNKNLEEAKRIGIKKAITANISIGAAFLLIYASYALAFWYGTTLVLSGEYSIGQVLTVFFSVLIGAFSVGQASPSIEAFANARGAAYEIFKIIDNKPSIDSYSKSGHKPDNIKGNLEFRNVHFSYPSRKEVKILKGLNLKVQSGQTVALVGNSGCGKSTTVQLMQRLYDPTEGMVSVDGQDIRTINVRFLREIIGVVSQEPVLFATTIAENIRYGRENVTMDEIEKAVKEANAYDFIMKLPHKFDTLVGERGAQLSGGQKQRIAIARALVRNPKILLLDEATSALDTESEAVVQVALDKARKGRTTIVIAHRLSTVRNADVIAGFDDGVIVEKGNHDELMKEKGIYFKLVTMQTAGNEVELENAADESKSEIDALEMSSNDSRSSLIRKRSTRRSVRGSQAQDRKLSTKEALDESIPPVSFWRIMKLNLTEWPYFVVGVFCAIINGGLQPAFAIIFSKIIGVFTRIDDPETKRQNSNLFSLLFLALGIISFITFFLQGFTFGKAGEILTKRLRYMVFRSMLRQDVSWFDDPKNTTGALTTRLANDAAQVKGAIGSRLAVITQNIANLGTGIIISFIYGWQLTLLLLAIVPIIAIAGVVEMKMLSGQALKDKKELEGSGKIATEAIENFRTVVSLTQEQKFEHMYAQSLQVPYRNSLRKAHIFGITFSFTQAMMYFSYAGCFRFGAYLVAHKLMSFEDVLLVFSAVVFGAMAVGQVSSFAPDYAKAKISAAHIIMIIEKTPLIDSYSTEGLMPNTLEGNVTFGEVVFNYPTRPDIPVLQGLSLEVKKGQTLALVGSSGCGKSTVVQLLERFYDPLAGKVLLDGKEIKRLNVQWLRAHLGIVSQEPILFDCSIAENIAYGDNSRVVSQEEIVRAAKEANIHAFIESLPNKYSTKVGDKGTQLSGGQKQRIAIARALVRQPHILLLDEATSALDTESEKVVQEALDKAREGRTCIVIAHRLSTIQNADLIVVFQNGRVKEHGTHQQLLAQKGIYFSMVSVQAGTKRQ

C[C@H]1[C@H](OC(=O)CCC(=O)O)O[C@@H]2O[C@@]3(C)CC[C@H]4[C@H](C)CC[C@@H]1[C@@]24OO3 [Artesunate, artesunate, reference compound]
Dead = number of dead embryos up to 48 hpf (zebrafish embryos; 25 μg/ml, N = 20 embryos): 1 | Vasc. Defects = number of surviving embryos with vascular defects (zebrafish embryos; 25 μg/ml, N = 20 embryos): 0 | Dead = number of dead embryos up to 48 hpf (zebrafish embryos; 50 μg/ml, N = 20 embryos): 1 | Vasc. Defects = number of surviving embryos with vascular defects (zebrafish embryos; 50 μg/ml, N = 20 embryos): 2 | Dead = number of dead embryos up to 48 hpf (zebrafish embryos; 100 μg/ml, N = 20 embryos): 1 | Vasc. Defects = number of surviving embryos with vascular defects (zebrafish embryos; 100 μg/ml, N = 20 embryos): 6 | Dead = number of dead embryos up to 48 hpf (zebrafish embryos; 200 μg/ml, N = 10 embryos): 1 | Vasc. Defects = number of surviving embryos with vascular defects (zebrafish embryos; 200 μg/ml, N = 10 embryos): 9 | Anti-angiogenic effect (in words) (zebrafish embryos): dose-dependent anti-angiogenic effects | P-gp inhibition judged by calcein fluorescence (P-glycoprotein (P-gp) [1]): do not act as P-gp inhibitors | Behaviour in cell culture medium (HUVEC cells; starvation medium EGM-2EV): precipitation from the cell culture medium

C[C@@H]1CC[C@H]2[C@@H](C)C(=O)O[C@@H]3O[C@@]4(C)CC[C@@H]1[C@]32OO4 [Compound 1, artemisinin]
IC50 [2, 5]: 94.9 ± 30.5 µM | P-gp inhibition judged by calcein fluorescence (P-glycoprotein (P-gp) [3]; CCRF-CEM and CEM/ADR5000 cells, FIG. 5): do not act as P-gp inhibitors | EC max (intracellular calcein fluorescence compared to untreated controls) (P-glycoprotein (P-gp) [3]): 114.1 ± 2.85^ % | IC50 (CCRF-CEM leukemia cells; Homo sapiens): 148 ± 16.6 µM

C[C@@H]1CC[C@H]2[C@@H](C)CO[C@@H]3O[C@@]4(C)CC[C@@H]1[C@]32OO4 [Compound 3, Deoxoartemisinin]
Degree of resistance [2]: 0.49 | IC50 [2, 5]: 117 ± 8.2 µM | IC50 (CCRF-CEM leukemia cells; Homo sapiens): 241 ± 50.7 µM

CC1=CO[C@@H]2O[C@@]3(C)CC[C@H]4[C@H](C)CC[C@@H]1[C@@]24OO3 [Compound 4, Anhydrodihydroartemisinin]
IC50 [2, 5]: 33.6 ± 0.68 µM | Dead = number of dead embryos up to 48 hpf (zebrafish embryos; 50 μg/ml, N = 10 embryos): 2 | Vasc. Defects = number of surviving embryos with vascular defects (zebrafish embryos; 50 μg/ml, N = 10 embryos): 0 | Dead = number of dead embryos up to 48 hpf (zebrafish embryos; 75 μg/ml, N = 10 embryos): 5 | Other defects observed (zebrafish embryos; 75 μg/ml, N = 10 embryos): B, E | Vasc. Defects = number of surviving embryos with vascular defects (zebrafish embryos; 75 μg/ml, N = 10 embryos): 0 | IC50 (CCRF-CEM leukemia cells; Homo sapiens): 83.4 ± 7.51 µM

CC(=O)OC1O[C@@H]2O[C@@]3(C)CC[C@H]4[C@H](C)CCC([C@H]1C)[C@@]24OO3 (stereo partly shown) [Compound 7, 10-Dihydroartemisinyl acetate]
Degree of resistance [2]: 12.83 | Anti-angiogenic effect (in words) (zebrafish embryos): dose-dependent anti-angiogenic effects | Inhibition of proliferation and survival of HUVECs (HUVEC cells): inhibited the proliferation and survival of HUVECs significantly stronger than artemisinin

C[C@H]1C(OC(=O)C(Cl)Cl)O[C@@H]2O[C@@]3(C)CC[C@H]4[C@H](C)CCC1[C@@]24OO3 (stereo partly shown) [Compound 8, 10-Dihydroartemisinyl 2′,2′-Dichloroacetate]
Anti-angiogenic effect (in words) (zebrafish embryos): dose-dependent anti-angiogenic effects | Inhibition of luminal P-gp (NBD-CSA in capillary lumen) [4]: almost empty lumen

CCCC(=O)OC1O[C@@H]2O[C@@]3(C)CC[C@H]4[C@H](C)CCC([C@H]1C)[C@@]24OO3 (stereo partly shown) [Compound 9, 10-Dihydroartemisinyl Butyrate]
Degree of resistance [2]: 0.51 | Dead = number of dead embryos up to 48 hpf (zebrafish embryos; 25 μg/ml, N = 30 embryos): 17 | Concentration at which intersomitic vessel (ISV) formation was suppressed (zebrafish embryos): 1 µg/mL | Anti-angiogenic effect (in words) (zebrafish embryos): dose-dependent anti-angiogenic effects

CC(C)C(=O)OC1O[C@@H]2O[C@@]3(C)CC[C@H]4[C@H](C)CCC([C@H]1C)[C@@]24OO3 (stereo partly shown) [Compound 10]
Degree of resistance [2]: 22.46 | Anti-angiogenic effect (in words) (zebrafish embryos): dose-dependent anti-angiogenic effects | Inhibition of proliferation and survival of HUVECs (HUVEC cells): inhibited the proliferation and survival of HUVECs significantly stronger than artemisinin

CCCC(CCC)C(=O)OC1O[C@@H]2O[C@@]3(C)CC[C@H]4[C@H](C)CCC([C@H]1C)[C@@]24OO3 (stereo partly shown) [Compound 11, 10-Dihydroartemisinyl 2′-Propylpentanoate]
Degree of resistance [2]: 1.23 | Dead = number of dead embryos up to 48 hpf (zebrafish embryos; 10 μg/ml, N = 30 embryos): 22 | Concentration at which intersomitic vessel (ISV) formation was suppressed (zebrafish embryos): 1 µg/mL | Anti-angiogenic effect (in words) (zebrafish embryos): dose-dependent anti-angiogenic effects

C[C@H]1C(OC(=O)C(C)(C)C)O[C@@H]2O[C@@]3(C)CC[C@H]4[C@H](C)CCC1[C@@]24OO3 (stereo partly shown) [Compound 12, 10-Dihydroartemisinyl 2′,2′-Dimethylpropianate]
Degree of resistance [2]: 2.65 | Dead = number of dead embryos up to 48 hpf (zebrafish embryos; 1.0 μg/ml, N = 10 embryos): 0 | Anti-angiogenic effect (in words) (zebrafish embryos): a specific anti-angiogenic effect was not observed | Toxicity to embryos (in words) (zebrafish embryos; zebrafish, in vivo): the most toxic at comparable doses

C[C@H]1C(OC(=O)c2ccccc2)O[C@@H]2O[C@@]3(C)CC[C@H]4[C@H](C)CCC1[C@@]24OO3 (stereo partly shown) [Compound 13, 10-dihydroartemisinyl benzoate]
Degree of resistance [2]: 7.79

C[C@H]1C(OC(=O)N(C)C)O[C@@H]2O[C@@]3(C)CC[C@H]4[C@H](C)CCC1[C@@]24OO3 (stereo partly shown) [Compound 14]
Degree of resistance [2]: 19.76

CCC(C)OC1OC2OC3(C)CCC4C(C)CCC(C1C)C24OO3 (stereo not shown) [Compound 15, 10-(2′-Butyloxy)Dihydroartemisinin]
Degree of resistance [2]: 0.47 | IC50 [2, 6]: 7.96 ± 3.76 µM | EC max (intracellular calcein fluorescence compared to untreated controls) (P-glycoprotein (P-gp) [3]): 1180 ± 178.7% | EC50 (P-glycoprotein (P-gp) [3]): 61.8 ± 9.62 µM | Dead = number of dead embryos up to 48 hpf (zebrafish embryos; 1.0 μg/ml, N = 10 embryos): 0 | Vasc. Defects = number of surviving embryos with vascular defects (zebrafish embryos; 1.0 μg/ml, N = 10 embryos): 0 | Dead = number of dead embryos up to 48 hpf (zebrafish embryos; 10 μg/ml, N = 10 embryos): 1 | Vasc. Defects = number of surviving embryos with vascular defects (zebrafish embryos; 10 μg/ml, N = 10 embryos): 0 | Dead = number of dead embryos up to 48 hpf (zebrafish embryos; 25 μg/ml, N = 10 embryos): 0 | Vasc. Defects = number of surviving embryos with vascular defects (zebrafish embryos; 25 μg/ml, N = 10 embryos): 0 | Inhibition of luminal P-gp (NBD-CSA in capillary lumen) [4]: almost empty lumen | IC50 (CCRF-CEM leukemia cells): 16.7 ± 7.34 µM

CC1CCC2C(C)C(SCCN)OC3OC4(C)CCC1C32OO4 (stereo not shown) [Compound 16, 10-Dihydroartemisinyl Thioethylamine]
Degree of resistance [2]: 3.88 | IC50 [2, 6]: 3.34 ± 0.64 µM | EC max (intracellular calcein fluorescence compared to untreated controls) (P-glycoprotein (P-gp) [3]): 1011 ± 106.3% | EC50 (P-glycoprotein (P-gp) [3]): 27.2 ± 4.69 µM | IC50 (CCRF-CEM leukemia cells): 0.86 ± 0.19 µM

C/C=C/C[C@@H](C)C(=O)[C@H]1C(=O)N[C@@H](C(C)C)C(=O)N(C)CC(=O)N(C)[C@@H](CC(C)C)C(=O)N[C@@H](C(C)C)C(=O)N(C)[C@@H](CC(C)C)C(=O)N[C@@H](C)C(=O)N[C@H](C)C(=O)N(C)[C@@H](CC(C)C)C(=O)N(C)[C@@H](CC(C)C)C(=O)N(C)[C@@H](C(C)C)C(=O)N1C [PSC-833, reference compound]
Inhibition of luminal P-gp (NBD-CSA in capillary lumen) [4]: inhibited

Cc1cc(C)c(/C=C2\C(=O)Nc3ccccc32)[nH]1 [SU5416, reference compound]
Formation of intersomitic vessels (ISVs) at 28 hpf (zebrafish embryos; 10 μg/ml, 28 hpf): completely blocked | ISV sprouting at 48 hpf compared to control embryos (zebrafish embryos; 10 μg/ml, 48 hpf): sprouted only minimally

Reference: US20130296412A1, “Artemisinin-Like Derivatives with Cytotoxic and Anti-Angiogenic Properties” (DAFRA PHARMA N.V., priority 2010, published 2013)
